One data set is described as follows: FRAP antioxidant assay. To be noted: trolox standard curve. As for the experimental part: The FRAP method was used to determine the antioxidant power of compounds. This method, which determines the reducing power of compounds, was developed by Benzie and Strain.[48] Fe(III)–TPTZ complex is formed as a result of the reaction of Fe(III) with tripyridyltriazine (TPTZ), and this complex is reduced to the Fe(II)–TPTZ complex with the antioxidant in the environment. The color of this complex is dark blue and gives the maximum absorbance at 593 nm.[48] Incubation is performed for up to 30 min to complete the reaction, and the correct absorbance values were read. The FRAP values of the samples were calculated as “μmol trolox equiv/g sample” with the help of the standard curve obtained using methanol–trolox standard solutions (0; 0.2; 0.4; 0.6; 0.8; and 1.0 μmol/mL) which were used as the positive control.[49] […]

The target in another data set is hCA I (Homo sapiens, UniProt P00915). Kind of data set: CA esterase activity method, hCA I. The format is biochemical. As to conditions: for Effect on hCA I isoenzyme activity: Table S3; for IC50: esterase activity, p-nitrophenyl acetate substrate. The text has this:
(§1) The method used to spectrophotometrically detect the antiepileptic, antiglaucoma, and […] effects of the obtained compounds in vitro is the esterase activity method. This method relies on the esterase activity of CA for the hydrolysis of p-nitrophenyl acetate as a substrate, which is a part of the reaction mechanism involving p-nitrophenol or p-nitrophenolate.

A further data set addresses hCA II (Homo sapiens, UniProt P00918). Put plainly: CA esterase activity method, hCA II. To be noted: for Effect on hCA II isoenzyme activity: Table S3; for IC50: esterase activity, p-nitrophenyl acetate substrate. Type of data set: biochemical.
Description: as §1

Data set [1] has as its system C6 rat glial tumor cell line. Put plainly: MTT cell viability assay on C6. Type of data set: cell-based. As to conditions: 24 h incubation. The text has this: (§2) 96-well plates were used for seeding cells. […] All compounds were run in three repetitions.
For data set [2], the system named is HT29 colon cancer cell line. Put plainly: MTT cell viability assay on HT29. Type of data set: cell-based, human.
Description: as §2
(Tetrazolium assays rely on reduction of a dye to a coloured formazan, in cell work by metabolically active cells.)

The test system of data set [3] is MCF7 human breast adenocarcinoma cell line. Kind of data set: MTT cell viability assay on MCF7. The format is cell-based.
Description: as §2

Data set [4] can be described thus: MTT cell viability assay on L929. As to conditions: mouse, L929 fibroblast cells.
Description: (§3) Human breast adenocarcinoma cell line (MCF7), rat glial tumor cell line (C6), healthy mouse fibroblast cell line (L929), and colon cancer (HT29) cell line were purchased from ATCC (American type culture collection) and studied.
(§4) The cytotoxic effects of all compounds by MTT analysis on L929, HT29, MCF7, and C6 cell lines were investigated. 96-well plates were used for seeding cells. Approximately 1 × 10^4 cells were seeded in each well. Cells were allowed to adhere for 24 h, and then the compounds were applied at different concentrations. All compounds were run in three repetitions. Wells with a maximum of 100 μM compounds were incubated for 24 h. Three wells without compounds treated with only DMSO (with total volume of % 0.5) were used as negative controls, and cisplatin was used as a positive control. […] After the MTT interaction, the FRAP wells were emptied, and DMSO solution was placed in them. The formazan crystals formed were dissolved with this solution, and the number of viable cells in each well was determined by color change.
The test system of data set [5] is L929 mouse fibroblast cell line. Kind of data set: MTT cell viability assay on L929. As to conditions: for toxicity in L929 healthy cell line: 100 μM, 24 h, triplicate; for IC50: read-out: IC50 L929.
Description: as §3, §4
[6] abbreviates: Homo sapiens, HT-29, 24 h incubation.
The mark [7] stands for this setting: Homo sapiens, MCF7, 24 h incubation.

The values below come from PMC11097166, “Imidazole-Derived Alkyl and Aryl Ethers: Synthesis, Characterization, In Vitro Anticancer and Antioxidant Activities, Carbonic Anhydrase I–II Inhibition Properties, and In Silico Studies” (ACS Omega, 2024).

Where two headings read alike, the source gives them in different places. Where only a bound is given, the exact number is not on record here.

hCA I, sequence (P00915 whole entry): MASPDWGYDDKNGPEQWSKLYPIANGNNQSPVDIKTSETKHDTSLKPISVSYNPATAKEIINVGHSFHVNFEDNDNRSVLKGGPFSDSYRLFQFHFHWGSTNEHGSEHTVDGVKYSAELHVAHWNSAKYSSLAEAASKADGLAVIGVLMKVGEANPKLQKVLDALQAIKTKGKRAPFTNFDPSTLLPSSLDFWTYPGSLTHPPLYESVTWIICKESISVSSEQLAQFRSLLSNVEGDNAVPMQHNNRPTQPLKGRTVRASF

Compound `CCCOC(Cn1ccnc1)c1ccccc1` (stereo not shown) [Compound 8, 1-(2-Phenyl-2-propoxyethyl)-1H-imidazole] came in with an FRAP in the data set “FRAP antioxidant assay” of 0.19 ± 0.02 μmol trolox equiv/g. Further, the “Effect on hCA I isoenzyme activity” value on hCA I is reported as “+”. Moreover, the “Effect on hCA II isoenzyme activity” value on hCA II is listed as “+”.

Take `CCCOC(Cn1ccnc1)c1ccc(Cl)cc1` (stereo not shown) [Compound 11, 1-(2-(4-Chlorophenyl)-2-propoxyethyl)-1H-imidazole]: in the data set “FRAP antioxidant assay”, the FRAP stood at 0.31 ± 0.07 μmol trolox equiv/g. Besides, at hCA I, the “Effect on hCA I isoenzyme activity” value is on record as “+”. Besides, the “Effect on hCA II isoenzyme activity” value at hCA II is “+”.

In the data set “FRAP antioxidant assay”, `CCOC(Cn1ccnc1)c1ccc(OC)cc1` (stereo not shown) [Compound 13, 1-(2-Ethoxy-2-(4-methoxyphenyl)ethyl)-1H-imidazole] yielded an FRAP of 0.15 ± 0.06 μmol trolox equiv/g. Further, at hCA I, the “Effect on hCA I isoenzyme activity” value was “+”. For the same compound, the “Effect on hCA II isoenzyme activity” value on hCA II is reported as “+”.

In the case of `CCOC(Cn1ccnc1)c1ccccc1` (stereo not shown) [Compound 7, 1-(2-Ethoxy-2-phenylethyl)-1H-imidazole], the 50% inhibitory concentration (IC50) in [1] (Rattus norvegicus, 24 h) was 26.1 ± 5.7 µM; in data set [2] (setting [6]), 102 ± 11.5 µM; in data set [3] (setting [7]), 122 ± 28.8 µM; in data set [5] (Mus musculus, L929, 24 h), 173 ± 16.6 µM. In “FRAP antioxidant assay”, the FRAP is listed as 0.10 ± 0.08 μmol trolox equiv/g. In addition, the “Effect on hCA I isoenzyme activity” value at hCA I is recorded as “+”. On hCA II, the “Effect on hCA II isoenzyme activity” value is on record as “+”. In data set [4], this compound had a viability at 24 h, 100 μM of at least 50%. Also, the “toxicity in L929 healthy cell line” value in data set [5] (MTT) was “not toxic”.

Take `N.N.[Cl][Pt][Cl]` [cisplatin, reference compound]: the IC50 in data set [1] was 88.2 ± 12.1 µM; in data set [2] (24 h incubation), 68.2 ± 3.39 µM; in [3] (24 h incubation), 26.8 ± 11 µM; in [5] (24 h incubation, MTT), 277.7 ± 1.09 µM.

As to `OC(Cn1ccnc1)c1ccc(Cl)cc1` (stereo not shown) [Compound 4b, 1-(4-Chlorophenyl)-2-(1H-imidazol-1-yl)ethanol], the concentration for half-maximal inhibition (IC50) is 20.1 ± 0.32 µM in data set [1] (Rattus norvegicus, 24 h); 44.1 ± 4.27 µM in [2] (setting [6]); 84.9 ± 21.5 µM in data set [3] (setting [7]); 105 ± 10.1 µM in data set [5] (Mus musculus, L929, 24 h). Also, in “FRAP antioxidant assay”, the FRAP is reported as 0.25 ± 0.02 μmol trolox equiv/g. For the same compound, the “Effect on hCA I isoenzyme activity” value on hCA I is recorded as “+”. The “Effect on hCA II isoenzyme activity” value at hCA II is given as “+”. The same compound displayed a viability at 24 h, 100 μM in data set [4] of at least 50%. In addition, the “toxicity in L929 healthy cell line” value in data set [5] (MTT) is “not toxic”.

With `Cc1ccc(COC(Cn2ccnc2)c2ccc(Cl)cc2)cc1` (stereo not shown) [Compound 21, 1-(2-(4-Chlorophenyl)-2-((4-methylbenzyl)oxy)ethyl)-1H-imidazole], in “FRAP antioxidant assay”, the FRAP was 0.25 ± 0.01 μmol trolox equiv/g. The results for the IC50 against hCA I and against hCA II were 0.00983 µM and 0.0079 µM, respectively.

Regarding `COc1ccc(C(=O)Cn2ccnc2)cc1` [Compound 3c, 2-(1H-Imidazol-1-yl)-1-(4-methoxyphenyl)ethanone], the FRAP in the data set “FRAP antioxidant assay” turned out to be 0.21 ± 0.03 μmol trolox equiv/g. At hCA I, the “Effect on hCA I isoenzyme activity” value is “-”. Besides, on hCA II, the “Effect on hCA II isoenzyme activity” value was “-”.

The compound `Clc1ccc(COC(Cn2ccnc2)c2ccccc2)cc1` (stereo not shown) [Compound 17, 1-(2-((4-Chlorobenzyl)oxy)-2-phenylethyl)-1H-imidazole] had an FRAP in “FRAP antioxidant assay” of 0.35 ± 0.07 μmol trolox equiv/g. For the same compound, the 50% inhibitory concentration (IC50) against hCA I worked out at 0.0132 µM; at hCA II, 0.0148 µM.

`CCCOC(Cn1ccnc1)c1ccc(OC)cc1` (stereo not shown) [Compound 14, 1-(2-(4-Methoxyphenyl)-2-propoxyethyl)-1H-imidazole] displayed an FRAP in “FRAP antioxidant assay” of 0.28 ± 0.01 μmol trolox equiv/g. The “Effect on hCA I isoenzyme activity” value on hCA I is “+”. Further, the “Effect on hCA II isoenzyme activity” value on hCA II is “+”.

The compound `C=CCOC(Cn1ccnc1)c1ccccc1` (stereo not shown) [Compound 9, 1-(2-(Allyloxy)-2-phenylethyl)-1H-imidazole] showed an FRAP in the data set “FRAP antioxidant assay” of 0.12 ± 0.01 μmol trolox equiv/g. In addition, on hCA I, the “Effect on hCA I isoenzyme activity” value is listed as “+”. Besides, the “Effect on hCA II isoenzyme activity” value at hCA II is listed as “+”.

Consider `Clc1ccc(COC(Cn2ccnc2)c2ccc(Cl)cc2)cc1` (stereo not shown) [Compound 20, 1-(2-((4-Chlorobenzyl)oxy)-2-(4-chlorophenyl)ethyl)-1H-imidazole], for which the FRAP in the data set “FRAP antioxidant assay” stood at 0.31 ± 0.06 μmol trolox equiv/g. The results for the IC50 at hCA I and on hCA II were 0.00413 µM and 0.0109 µM, respectively.

On to `OC(Cn1ccnc1)c1ccccc1` (stereo not shown) [Compound 4a, 2-(1H-Imidazol-1-yl)-1-phenylethanol], for which the 50% inhibitory concentration (IC50) was 35.2 ± 0.55 µM in [1] (Rattus norvegicus, 24 h); 74.6 ± 6.67 µM in data set [2] (setting [6]); 104 ± 15.3 µM in data set [3] (setting [7]); 166 ± 11.9 µM in [5] (Mus musculus, L929, 24 h). The compound further displayed an FRAP in the data set “FRAP antioxidant assay” of 0.31 ± 0.01 μmol trolox equiv/g. Also, the “Effect on hCA I isoenzyme activity” value at hCA I was “+”. For the same compound, on hCA II, the “Effect on hCA II isoenzyme activity” value is given as “+”. The compound further displayed a viability at 24 h, 100 μM in data set [4] of at least 50%. Further, the “toxicity in L929 healthy cell line” value in [5] (MTT) was “not toxic”.

In the data set “FRAP antioxidant assay”, `C=CCOC(Cn1ccnc1)c1ccc(Cl)cc1` (stereo not shown) [Compound 12, 1-(2-(Allyloxy)-2-(4-chlorophenyl)ethyl)-1H-imidazole] gave an FRAP of 0.28 ± 0.04 μmol trolox equiv/g. Further, at hCA I, the “Effect on hCA I isoenzyme activity” value is reported as “+”. Also, the “Effect on hCA II isoenzyme activity” value at hCA II is listed as “+”.

The compound `COc1ccc(C(Cn2ccnc2)OCc2ccc(Cl)cc2)cc1` (stereo not shown) [Compound 23, 1-(2-((4-Chlorobenzyl)oxy)-2-(4-methoxyphenyl)ethyl)-1H-imidazole] displayed a melting point of 104 to 105 °C. In the data set “FRAP antioxidant assay”, this compound yielded an FRAP of 0.45 ± 0.04 μmol trolox equiv/g. For the same compound, the IC50 against hCA I stood at 0.00749 µM. On hCA II, this compound yielded an IC50 of 0.00565 µM.

The compound `c1ccc(COC(Cn2ccnc2)c2ccccc2)cc1` (stereo not shown) [Compound 16, 1-(2-(Benzyloxy)-2-phenylethyl)-1H-imidazole] returned an FRAP in “FRAP antioxidant assay” of 0.41 ± 0.03 μmol trolox equiv/g. The “Effect on hCA I isoenzyme activity” value at hCA I is listed as “+”. Moreover, at hCA II, the “Effect on hCA II isoenzyme activity” value is listed as “+”.

For `Cc1ccc(COC(Cn2ccnc2)c2ccccc2)cc1` (stereo not shown) [Compound 18, 1-(2-((4-Methylbenzyl)oxy)-2-phenylethyl)-1H-imidazole], the FRAP in “FRAP antioxidant assay” was 0.30 ± 0.04 μmol trolox equiv/g. Moreover, at hCA I, the “Effect on hCA I isoenzyme activity” value is “+”. Further, the “Effect on hCA II isoenzyme activity” value at hCA II is on record as “+”.

The compound `COc1ccc(C(Cn2ccnc2)OCc2ccc(C)cc2)cc1` (stereo not shown) [Compound 24, 1-(2-(4-Methoxyphenyl)-2-((4-methylbenzyl)oxy)ethyl)-1H-imidazole] registered an FRAP in the data set “FRAP antioxidant assay” of 0.46 ± 0.06 μmol trolox equiv/g. In addition, the figures for the IC50 against hCA I and at hCA II were 0.00477 µM and 0.00966 µM, respectively.

Consider `COc1ccc(C(Cn2ccnc2)OCc2ccccc2)cc1` (stereo not shown) [Compound 22, 1-(2-(Benzyloxy)-2-(4-methoxyphenyl)ethyl)-1H-imidazole], for which the FRAP in the data set “FRAP antioxidant assay” was 0.40 ± 0.05 μmol trolox equiv/g.

Compound `C=CCOC(Cn1ccnc1)c1ccc(OC)cc1` (stereo not shown) [Compound 15, 1-(2-(Allyloxy)-2-(4-methoxyphenyl)ethyl)-1H-imidazole] returned an FRAP in “FRAP antioxidant assay” of 0.31 ± 0.03 μmol trolox equiv/g. Besides, the “Effect on hCA I isoenzyme activity” value on hCA I is “+”. Besides, at hCA II, the “Effect on hCA II isoenzyme activity” value is given as “+”.

With `Clc1ccc(C(Cn2ccnc2)OCc2ccccc2)cc1` (stereo not shown) [Compound 19, 1-(2-(Benzyloxy)-2-(4-chlorophenyl)ethyl)-1H-imidazole], the FRAP in “FRAP antioxidant assay” was determined as 0.27 ± 0.01 μmol trolox equiv/g. Further, the IC50 on hCA I came to 0.0157 µM; against hCA II it was 0.0117 µM.

In turn, vitamin E [reference compound] came in with an FRAP in the data set “FRAP antioxidant assay” of 1.00 ± 0.04 μmol trolox equiv/g.

In turn, `CCOC(Cn1ccnc1)c1ccc(Cl)cc1` (stereo not shown) [Compound 10, 1-(2-(4-Chlorophenyl)-2-ethoxyethyl)-1H-imidazole] showed an FRAP in “FRAP antioxidant assay” of 0.20 ± 0.03 μmol trolox equiv/g. The “Effect on hCA I isoenzyme activity” value at hCA I is on record as “+”. For the same compound, the “Effect on hCA II isoenzyme activity” value at hCA II was “+”.

As usually defined, the IC50 is the concentration that inhibits the measured activity by half. Broadly, the viability is a per cent measure of how many cells are alive, often set against a control. A high value points to better survival. As a reminder, the melting point is the temperature of the solid-liquid transition.
